The values that follow come from patent US20260224582A1, “Heterobicyclic amides as inhibitors of CD38” (Cerevance, Inc., priority 2022, published 2026).

The target in assay [1] is T1, Recombinant human CD38 (Homo sapiens, UniProt P28907).
T1 sequence (P28907 1-300): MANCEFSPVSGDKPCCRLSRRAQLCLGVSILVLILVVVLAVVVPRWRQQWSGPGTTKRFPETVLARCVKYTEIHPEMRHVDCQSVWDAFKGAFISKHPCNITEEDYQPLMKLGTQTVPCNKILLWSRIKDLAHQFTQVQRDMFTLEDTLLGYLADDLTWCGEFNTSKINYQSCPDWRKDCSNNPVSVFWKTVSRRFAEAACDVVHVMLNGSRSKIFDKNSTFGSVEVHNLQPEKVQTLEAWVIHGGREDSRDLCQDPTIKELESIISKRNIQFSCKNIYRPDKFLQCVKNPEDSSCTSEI
Put plainly: Human CD38 hydrolase assay (fluorescence-based, ε-NAD substrate). The conditions noted are these: recombinant human CD38 0.8 nM, 4 μM ε-NAD, 30 min preincubation at 25° C. The class given is biochemical. On the procedure:
The ability of test compounds to inhibit human CD38 hydrolase activity was measured in a fluorescence-based assay using non-physiological NAD^+ substrate analogue 1,N^6-etheno NAD^+ (ε-NAD). Recombinant human CD38 (0.8 nM) was preincubated with test compounds in 384-well black microplates for 30 min at 25° C. in PBS (—Ca^2+/Mg^2+) containing 0.005% BSA (pH 7.4). CD38 hydrolase activity was initiated by addition of 4 μM ε-NAD, which yields the fluorescent product 1,N^6-etheno ADP-ribose. Formation of fluorescent product was followed using ClarioStar Plus (BMG) microplate reader by reading fluorescence (excitation λ=300 nm; emission λ=410 nm) at two time points, one immediately after substrate addition (t=0) and one at 10 min (t=10). Data was analysed by subtracting the values detected at t=0 from t=10 to correct for variation in baseline fluorescence. Fluorescence values were converted to percent inhibition using the average of high signal (CD38 and ε-NAD) and low signal (CD38 and ε-NAD in the presence of a tool CD38 inhibitor) control wells. IC50 values were determined from a 10-point, half log concentration response curve with a four-parameter logistic equation.

In assay [2] the target is T2, Recombinant mouse CD38 (Mus musculus, UniProt P56528).
T2 sequence (P56528 1-304): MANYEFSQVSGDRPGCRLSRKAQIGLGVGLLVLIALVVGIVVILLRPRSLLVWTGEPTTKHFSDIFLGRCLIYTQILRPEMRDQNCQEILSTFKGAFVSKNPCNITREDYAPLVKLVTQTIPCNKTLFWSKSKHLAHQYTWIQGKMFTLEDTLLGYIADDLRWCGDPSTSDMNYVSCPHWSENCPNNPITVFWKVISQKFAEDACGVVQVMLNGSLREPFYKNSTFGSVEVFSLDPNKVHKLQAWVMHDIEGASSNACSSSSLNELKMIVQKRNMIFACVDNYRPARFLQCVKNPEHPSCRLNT
The assay is described as follows: Mouse CD38 hydrolase assay (fluorescence-based, ε-NAD substrate). The class given is biochemical. The conditions noted are these: recombinant mouse CD38 0.4 nM, 12 μM ε-NAD, 30 min preincubation at 25° C. As to the method: The ability of test compounds to inhibit mouse CD38 hydrolase activity was measured in a fluorescence-based assay using non-physiological NAD^+ substrate analogue 1,N^6-etheno NAD^+ (&-NAD). Recombinant mouse CD38 (0.4 nM) was preincubated with test compounds in 384-well black microplates for 30 min at 25° C. in PBS (—Ca^2+/Mg^2+) containing 0.005% BSA (pH 7.4). CD38 hydrolase activity was initiated by addition of 12 μM ε-NAD, which yields the fluorescent product 1,N^6-etheno ADP-ribose. Formation of fluorescent product was followed using ClarioStar Plus (BMG) microplate reader by reading fluorescence (excitation λ=300 nm; emission λ=410 nm) at two time points, one immediately after substrate addition (t=0) and one at 6 min (t=6).
Data was analysed by subtracting the values detected at t=0 from t=6 to correct for variation in baseline fluorescence. Fluorescence values were converted to percent inhibition using the average of high signal (CD38 and ε-NAD) and low signal (CD38 and ε-NAD in the presence of a tool CD38 inhibitor) control wells. IC50 values were determined from a 10-point, halflog concentration response curve with a four-parameter logistic equation.

Where only a bound is given, the exact number is not on record here.

Usually IC50 stands for the concentration that inhibits the measured activity by half.

Consider `O=C(NC1CC2(CC(NCC(F)(F)F)C2)C1)c1nc(-n2ccnc2)nn2cccc12` (single isomer, unassigned) [Example 9, 2-(1H-imidazol-1-yl)-N-(6-((2,2,2-trifluoroethyl)amino)spiro[3.3]heptan-2-yl)pyrrolo[2,1-f][1,2,4]triazine-4-carboxamide], for which the IC50 in assay [1] and in assay [2] was ≤ 40 nM in each case.
As to `O=C(NC1CC2(CC(NCC(F)(F)F)C2)C1)c1nc(-n2ccnc2)nn2cccc12` (single isomer, unassigned) [Example 10, 2-(1H-imidazol-1-yl)-N-(6-((2,2,2-trifluoroethyl)amino)spiro[3.3]heptan-2-yl)pyrrolo[2,1-f][1,2,4]triazine-4-carboxamide], the IC50 in assay [1] and in assay [2] was ≤ 40 nM each time.
Turning to `O=C(NC1CCOCC1)c1nc(-n2ccnc2)cc2nccn12` [Example 1, 7-(1H-imidazol-1-yl)-N-(tetrahydro-2H-pyran-4-yl) imidazo[1,2-c]pyrimidine-5-carboxamide], the IC50 is ≤ 100 nM in assay [1] and ≤ 40 nM in assay [2].
As for `O=C(N[C@H]1CC[C@H](NCC(F)(F)F)CC1)c1nc(-n2ccnc2)cc2nccn12` [Example 2, 7-(1H-imidazol-1-yl)-N-((1r,4r)-4-((2,2,2-trifluoroethyl)amino)cyclohexyl) imidazo[1,2-c]pyrimidine-5-carboxamide], the IC50 in assay [1] and in assay [2] was ≤ 40 nM throughout.
Turning to `O=C(NC1CCOCC1)c1nc(-n2ccnc2)nc2ncccc12` [Example 3, 2-(1H-imidazol-1-yl)-N-(tetrahydro-2H-pyran-4-yl)pyrido[2,3-d]pyrimidine-4-carboxamide], the IC50 in assay [1] and in assay [2] was ≤ 40 nM throughout.
`O=C(N[C@H]1CC[C@H](NCC(F)(F)F)CC1)c1nc(-c2cncs2)cn2cccc12` [Example 5, 3-(thiazol-5-yl)-N-((1r,4r)-4-((2,2,2-trifluoroethyl)amino)cyclohexyl)pyrrolo[1,2-a]pyrazine-1-carboxamide]: the figures for the IC50 in assay [1] and in assay [2] were ≤ 1000 nM and ≤ 40 nM, respectively.
On to `O=C(N[C@H]1CC[C@H](NCC(F)(F)F)CC1)c1cc2cccnc2c(-n2ccnc2)n1` [Example 6, 8-(1H-imidazol-1-yl)-N-((1r,4r)-4-((2,2,2-trifluoroethyl)amino)cyclohexyl)-1,7-naphthyridine-6-carboxamide], for which, in assay [1], the IC50 is ≤ 10000 nM.
Take `O=C(N[C@H]1CC[C@H](NCC(F)(F)F)CC1)c1cc2cccnc2c(-c2cncs2)n1` [Example 7, 8-(thiazol-5-yl)-N-((1r,4r)-4-((2,2,2-trifluoroethyl)amino)cyclohexyl)-1,7-naphthyridine-6-carboxamide]: the IC50 in assay [1] was ≤ 1000 nM; in assay [2] it was ≤ 40 nM.
With `O=C(NC1CCC2(CC1)CN(CC(F)(F)F)C2)c1nc(-n2ccnc2)nn2cccc12` [Example 8, 2-(1H-imidazol-1-yl)-N-(2-(2,2,2-trifluoroethyl)-2-azaspiro[3.5]nonan-7-yl)pyrrolo[2,1-f][1,2,4]triazine-4-carboxamide], the IC50 in assay [1] and in assay [2] was ≤ 40 nM each time.
As for `O=C(N[C@H]1C[C@H](NCC(F)(F)F)C1)c1nc(-n2ccnc2)nn2cccc12` [Example 11, 2-(1H-imidazol-1-yl)-N-((1r,3r)-3-((2,2,2-trifluoroethyl)amino)cyclobutyl)pyrrolo[2,1-f][1,2,4]triazine-4-carboxamide], the IC50 in assay [1] and in assay [2] was ≤ 40 nM throughout.
With `O=C(N[C@H]1CC[C@H](NCC(F)(F)F)CC1)c1cn2cccc2c(-n2ccnc2)n1` [Example 15, 1-(1H-imidazol-1-yl)-N-((1r,4r)-4-((2,2,2-trifluoroethyl)amino)cyclohexyl)pyrrolo[1,2-a]pyrazine-3-carboxamide], the IC50 in assay [1] and in assay [2] was ≤ 40 nM in each case.
As to `O=C(N[C@H]1CC[C@H](NCC(F)(F)F)CC1)c1nc(-n2ccnc2)c2cccn2n1` [Example 16, 4-(1H-imidazol-1-yl)-N-((1r,4r)-4-((2,2,2-trifluoroethyl)amino)cyclohexyl)pyrrolo[2,1-f][1,2,4]triazine-2-carboxamide], the IC50 is ≤ 1000 nM in assay [1] and ≤ 40 nM in assay [2].
For `Cn1cncc1-c1nc(C(=O)N[C@H]2CC[C@H](NCC(F)(F)F)CC2)c2cccn2n1` [Example 17, 2-(1-methyl-1H-imidazol-5-yl)-N-((1r,4r)-4-((2,2,2-trifluoroethyl)amino)cyclohexyl)pyrrolo[2,1-f][1,2,4]triazine-4-carboxamide], in that order: ≤ 40 nM and ≤ 40 nM.
For `O=C(N[C@H]1CC[C@H](NCC(F)(F)F)CC1)c1nc(-c2cncn2CCO)nn2cccc12` [Example 18, 2-(1-(2-hydroxyethyl)-1H-imidazol-5-yl)-N-((1r,4r)-4-((2,2,2-trifluoroethyl)amino)cyclohexyl)pyrrolo[2,1-f][1,2,4]triazine-4-carboxamide], in that order: ≤ 40 nM and ≤ 40 nM.
In the case of `O=C(N[C@H]1CC[C@H](N2CC[C@H](F)C2)CC1)c1cn2cccc2c(-n2ccnc2)n1` [Example 22, N-((1S,4r)-4-((S)-3-fluoropyrrolidin-1-yl)cyclohexyl)-1-(1H-imidazol-1-yl)pyrrolo[1,2-a]pyrazine-3-carboxamide], the IC50 in assay [1] was ≤ 1000 nM; in assay [2], ≤ 40 nM.
For `O=C(N[C@H]1CC[C@H](N2CC[C@H](O)C2)CC1)c1nc(-n2ccnc2)nn2cccc12` [Example 23, N-((1S,4r)-4-((S)-3-hydroxypyrrolidin-1-yl)cyclohexyl)-2-(1H-imidazol-1-yl)pyrrolo[2,1-f][1,2,4]triazine-4-carboxamide], in that order: ≤ 40 nM and ≤ 40 nM.
For `O=C(N[C@H]1CC[C@H](N2CC[C@@H](F)C2)CC1)c1cn2cccc2c(-n2ccnc2)n1` [Example 24, N-((1R,4r)-4-((R)-3-fluoropyrrolidin-1-yl)cyclohexyl)-1-(1H-imidazol-1-yl)pyrrolo[1,2-a]pyrazine-3-carboxamide], in that order: ≤ 1000 nM and ≤ 40 nM.
For `O=C(N[C@H]1CC[C@H](N2CC[C@H](F)C2)CC1)c1cn2ncnc2c(-n2ccnc2)n1` [Example 25, N-((1S,4r)-4-((S)-3-fluoropyrrolidin-1-yl)cyclohexyl)-8-(1H-imidazol-1-yl)-[1,2,4]triazolo[1,5-a]pyrazine-6-carboxamide], in that order: ≤ 1000 nM and ≤ 40 nM.
With `O=C(N[C@H]1CC[C@H](N2CCC(F)(F)C2)CC1)c1cn2nccc2c(-n2ccnc2)n1` [Example 34, N-((1r,4r)-4-(3,3-difluoropyrrolidin-1-yl)cyclohexyl)-4-(1H-imidazol-1-yl)pyrazolo[1,5-a]pyrazine-6-carboxamide], the IC50 in assay [1] is ≤ 1000 nM.
The same measure, in the same setting: the figure for `O=C(N[C@H]1CC[C@H](N2CCCC2)CC1)c1nc(-n2ccnc2)nn2cccc12` [Example 43, 2-(1H-imidazol-1-yl)-N-((1r,4r)-4-(pyrrolidin-1-yl)cyclohexyl)pyrrolo[2,1-f][1,2,4]triazine-4-carboxamide] is ≤ 40 nM.
On the same count and under the same terms, the figure for `O=C(N[C@H]1CC[C@H](N2CCOCC2)CC1)c1cn2ncnc2c(-n2ccnc2)n1` [Example 49, 8-(1H-imidazol-1-yl)-N-((1r,4r)-4-morpholinocyclohexyl)-[1,2,4]triazolo[1,5-a]pyrazine-6-carboxamide] is ≤ 1000 nM; for `O=C(N[C@H]1CC[C@H](NCC(F)(F)F)CC1)c1cc2ncnn2c(-n2ccnc2)n1` [Example 60, 5-(1H-imidazol-1-yl)-N-((1r,4r)-4-((2,2,2-trifluoroethyl)amino)cyclohexyl)-[1,2,4]triazolo[1,5-c]pyrimidine-7-carboxamide] it is ≤ 1000 nM.
